# Measured values from patent US20160318866A1, “SUBSTITUTED BIPIPERIDINYL DERIVATIVES” (Bayer Pharma Aktiengesellschaft, priority 2013, published 2016).
# Where a name gives a salt, the structure may show the parent alone.
# Biological target: T1, human α2C receptor (Homo sapiens, UniProt P18825)
# T1 construct: expressed in transfected cells; host or cells: CHO cells, also recombinantly expressing chimeric G protein Gαqi3 and mitochondrial obelin (mtOb)
# T1 sequence (P18825 1-462): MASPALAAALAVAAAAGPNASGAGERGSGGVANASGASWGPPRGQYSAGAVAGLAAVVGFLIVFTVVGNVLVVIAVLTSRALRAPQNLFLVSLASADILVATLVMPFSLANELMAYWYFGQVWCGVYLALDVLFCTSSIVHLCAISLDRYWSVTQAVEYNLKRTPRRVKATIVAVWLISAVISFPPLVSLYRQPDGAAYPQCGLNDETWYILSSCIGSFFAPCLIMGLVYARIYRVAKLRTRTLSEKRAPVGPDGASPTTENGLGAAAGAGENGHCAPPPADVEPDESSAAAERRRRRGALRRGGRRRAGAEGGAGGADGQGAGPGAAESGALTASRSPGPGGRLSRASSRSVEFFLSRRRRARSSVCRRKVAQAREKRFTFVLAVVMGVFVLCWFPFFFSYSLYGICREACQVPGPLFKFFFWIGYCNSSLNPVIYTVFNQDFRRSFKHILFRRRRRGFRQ
# Experiment: Antagonism against the adrenoreceptor α2C (luminescence, recombinant CHO cell line)
# Type: cell-based
# Settings: antagonism against adrenoreceptor α2C; noradrenaline 20 nM; tested up to 10 μM; read-out: IC50
# Experimental: Antagonism against the adrenoreceptor α1A was tested using a recombinant human α1A receptor CHO cell line which additionally also recombinantly expresses mtAeq (mitochondrial aequorin). Antagonism against the adrenoreceptor α2A was tested using a recombinant human α2A-Gα16 receptor fusion protein CHO cell line (PerkinElmer Life Sciences) which additionally also recombinantly expresses mtAeq. Antagonism against the adrenoreceptor α2B was tested using a recombinant human α2B receptor CHO cell line (PerkinElmer Life Sciences) which additionally also recombinantly expresses mtAeq. Antagonism against the adrenoreceptor α2C was tested using a recombinant human α2C receptor CHO cell line which additionally also recombinantly expresses a chimaric G protein (Gαqi3) and mtOb (mitochondrial obelin).
# The cells were cultivated at 37° C. and 5% CO2 in Dulbecco's modified Eagle's Medium/NUT mix F12 with L-glutamine which additionally contains 10% (v/v) inactivated foetal calf serum, 1 mM sodium pyruvate, 0.9 mM sodium bicarbonate, 50 U/ml penicillin, 50 μg/ml streptomycin, 2.5 μg/ml amphotericin B and 1 mg/ml Geneticin. The cells were passaged with enzyme-free Hank's-based cell dissociation buffer. All cell culture reagents used are from Invitrogen (Carlsbad, USA).
# Luminescence measurements were carried out on white 384-well microtitre plates. 2000 cells/well were plated in a volume of 25 μl and cultivated for one day at 30° C. and 5% CO2 in cell culture medium with coelenterazine (α2A and α2B: 5 μg/ml; α1a/c and α2C: 2.5 μg/ml). Serial dilutions of the test substances (10 μl) were added to the cells. After 5 minutes, noradrenalinee was added to the cells (35 μl; final concentrations: 20 nM (α1a/c and α2C) or 200 nM (α2A and α2B)), and the emitted light was measured for 50 seconds using a CCD (charge-coupled device) camera (Hamamatsu Corporation, Shizuoka, Japan) in a light-tight box. The test substances were tested up to a maximum concentration of 10 μM. The IC50 values were calculated from the appropriate dose-response curves.
row,SMILES,IC50 [nM]
1,"CC(C)(O)c1ccc(C(=O)N2CCC(N3CCCC(COC(F)(F)F)C3)CC2)cc1 (stereo not shown) [Example 110, [4-(2-Hydroxypropan-2-yl)phenyl]{3-[(trifluoromethoxy)methyl]-1,4′-bipiperidin-1′-yl}methanone]",7
2,"CC(C)(O)c1ccc(C(=O)N2CCC(N3CCCC(OCCOC(F)(F)F)C3)CC2)cc1 (stereo not shown) [Example 127, [4-(2-Hydroxypropan-2-yl)phenyl]{3-[2-(trifluoromethoxy)ethoxy]-1,4′-bipiperidin-1′-yl}methanone]",154
3,"O=C(c1ccc(C2(O)COC2)cc1)N1CCC(N2CCCC(OCC3CC3)C2)CC1 (stereo not shown) [Example 124, [3-(Cyclopropylmethoxy)-1,4′-bipiperidin-1′-yl][4-(3-hydroxyoxetan-3-yl)phenyl]methanone]",39
4,"C[C@@H]1CCCN(C2CCN(C(=O)c3ccc(C(=O)NC(c4ccc(C(F)(F)F)cc4)C(F)(F)F)cc3)CC2)C1 (stereo partly drawn) [Example 85, 4-{[(3R)-3-Methyl-1,4′-bipiperidin-1′-yl]carbonyl}-N-{2,2,2-trifluoro-1-[4-(trifluoromethyl)phenyl]ethyl}benzamide trifluoroacetic acid salt]",200
5,"C[C@@H]1CCCN(C2CCN(C(=O)c3ccc(C(=O)NCc4ncccc4F)cc3)CC2)C1 [Example 98, N-[(3-Fluoropyridin-2-yl)methyl]-4-{[(3R)-3-methyl-1,4′-bipiperidin-1′-yl]carbonyl}benzamide]",27
6,"Cc1nnc(C2CCCN(C3CCN(C(=O)c4ccc(C(C)(C)C)cc4)CC3)C2)o1 (stereo not shown) [Example 18, (4-tert-Butylphenyl) [3-(5-methyl-1,3,4-oxadiazol-2-yl)-1,4′-bipiperidin-1′-yl]methanone]",129
7,"COCCNC(=O)c1ccc(C(=O)N2CCC(N3CCCC(C)C3)CC2)cc1 (stereo not shown) [Example 36, N-(2-Methoxyethyl)-4-[(3-methyl-1,4′-bipiperidin-1′-yl)carbonyl]benzamide]",479
8,"COCC(C)NC(=O)c1ccc(C(=O)N2CCC(N3CCCC(C)C3)CC2)cc1 (stereo not shown) [Example 55, N-(1-methoxypropan-2-yl)-4-[(3-methyl-1,4′-bipiperidin-1′-yl)carbonyl]benzamide]",330
9,"C[C@@H]1CCCN(C2CCN(C(=O)c3ccc(C(=O)NC(CCO)c4ccccc4F)cc3)CC2)C1 (stereo partly drawn) [Example 89, N-[1-(2-Fluorophenyl)-3-hydroxypropyl]-4-{[(3R)-3-methyl-1,4′-bipiperidin-1′-yl]carbonyl}benzamide trifluoroacetic acid salt]",17
10,"C[C@@H]1CN(C2CCN(C(=O)c3ccc(C(C)(C)C)cc3)CC2)CC[C@@H]1C (relative stereo) [Example 20, cis-1-[1-(4-tert-Butylbenzoyl)piperidin-4-yl]-3,4-dimethylpiperidine trifluoroacetic acid salt]",117
11,"CCCC(C)NC(=O)c1ccc(C(=O)N2CCC(N3CCCC(C)C3)CC2)cc1 (stereo not shown) [Example 44, 4-[(3-methyl-1,4′-bipiperidin-1′-yl)carbonyl]-N-(pentan-2-yl)benzamide]",55
12,"CCOC(=O)c1ccc(C(=O)N2CCC(N3CCCC(C)C3)CC2)cc1 (stereo not shown) [Example 32, 1-{1-[4-(Ethoxycarbonyl)benzoyl]piperidin-4-yl}-3-methylpiperidine trifluoroacetic acid salt]",222
13,"COCC1CCCN(C2CCN(C(=O)c3ccc(C(C)(C)O)cc3)CC2)C1 (single isomer, unassigned; enantiomer 2) [Example 123]",7
14,"COC(=O)c1ccc(C(=O)N2CCC(N3CCCC(C)C3)CC2)cc1 (stereo not shown) [Example 22, Methyl 4-[(3-methyl-1,4′-bipiperidin-1′-yl)carbonyl]benzoate]",940
15,"Cc1noc(C)c1NC(=O)c1ccc(C(=O)N2CCC(N3CCCC(C)C3)CC2)cc1 (stereo not shown) [Example 56, N-(3,5-dimethyl-1,2-oxazol-4-yl)-4-[(3-methyl-1,4′-bipiperidin-1′-yl)carbonyl]benzamide]",35
16,"CC1CCCN(C2CCN(C(=O)c3ccc(C(C)C)cc3)CC2)C1 (stereo not shown) [Example 4, (4-Isopropylphenyl)(3-methyl-1,4′-bipiperidin-1′-yl)methanone]",294

row,SMILES,IC50 [nM]
1,"CC(NC(=O)c1ccc(C(=O)N2CCC(N3CCC[C@@H](C)C3)CC2)cc1)c1ccncc1 (stereo partly drawn) [Example 93, 4-{[(3R)-3-Methyl-1,4′-bipiperidin-1′-yl]carbonyl}-N-[1-(pyridin-4-yl)ethyl]benzamide]",135
2,"CC1CCCN(C2CCN(C(=O)c3ccc(C(=O)NC(C)(C)c4cc(Cl)cc(Cl)c4)cc3)CC2)C1 (stereo not shown) [Example 80, N-[2-(3,5-Dichlorophenyl)propan-2-yl]-4-[(3-methyl-1,4′-bipiperidin-1′-yl)carbonyl]benzamide trifluoroacetic acid salt]",150
3,CC1CCCN(C2CCN(C(=O)c3ccc(C(C)(C)O)cc3)CC2)C1 (stereo not shown) [Example 7],538
4,"CC(C)(O)c1ccc(C(=O)N2CCC(N3CCCC(OC4CC4)C3)CC2)cc1 (stereo not shown) [Example 112, 3-(Cyclopropyloxy)-1,4′-bipiperidin-1′-yl][4-(2-hydroxypropan-2-yl)phenyl]methanone formic acid salt]",358
5,"C[C@@H]1CCCN(C2CCN(C(=O)c3ccc(C(=O)N(C)Cc4c(F)cccc4F)cc3)CC2)C1 [Example 84, (R)—N-(2,6-Difluorobenzyl)-N-methyl-4-{[(3R)-3-methyl-1,4′-bipiperidin-1′-yl]carbonyl}benzamide trifluoroacetic acid salt]",3
6,"CCOC(=O)C1CCCN(C2CCN(C(=O)c3ccc(C(C)(C)O)cc3)CC2)C1 (stereo not shown) [Example 9, Ethyl 1′-[4-(2-hydroxypropan-2-yl)benzoyl]-1,4′-bipiperidine-3-carboxylate]",44
7,"C[C@@H]1CCCN(C2CCN(C(=O)c3ccc(C(=O)NC(CO)c4ccccc4F)cc3)CC2)C1 (stereo partly drawn) [Example 94, N-[1-(2-Fluorophenyl)-2-hydroxyethyl]-4-{[(3R)-3-methyl-1,4′-bipiperidin-1′-yl]carbonyl}benzamide]",25
8,"CC1CCCN(C2CCN(C(=O)c3ccc(C4(CNC=O)CCC4)cc3)CC2)C1 (stereo not shown) [Example 66, N-[(1-{4-[(3-Methyl-1,4′-bipiperidin-1′-yl)carbonyl]phenyl}cyclobutyl)methyl]formamide hydrochloride]",15
9,"CC1=C(C)CN(C2CCN(C(=O)c3ccc(C(=O)Nc4c(C)noc4C)cc3)CC2)CC1 [Example 104, 4-{[4-(4,5-Dimethyl-3,6-dihydropyridin-1 (2H)-yl)piperidin-1-yl]carbonyl}-N-(3,5-dimethyl-1,2-oxazol-4-yl)benzamide]",9
10,"Cc1n[nH]c(C2CCCN(C3CCN(C(=O)c4ccc(C(C)(C)O)cc4)CC3)C2)n1 (stereo not shown) [Example 63, [4-(2-Hydroxypropan-2-yl)phenyl][3-(3-methyl-1H-1,2,4-triazol-5-yl)-1,4′-bipiperidin-1′-yl]methanone]",128
11,"CC1CCCN(C2CCN(C(=O)c3ccc(C(=O)NC(C)(C)C)cc3)CC2)C1 (stereo not shown) [Example 38, 1-{1-[4-(tert-Butylcarbamoyl)benzoyl]piperidin-4-yl}-3-methylpiperidine trifluoroacetic acid salt]",139
12,"CC(C)(O)c1ccc(C(=O)N2CCC(N3CCCC(c4nnc(C5CC5)[nH]4)C3)CC2)cc1 (stereo not shown) [Example 60, [3-(5-Cyclopropyl-4H-1,2,4-triazol-3-yl)-1,4′-bipiperidin-1′-yl][4-(2-hydroxypropan-2-yl)phenyl]methanone]",45
13,"CC(C)CN(C)C(=O)c1ccc(C(=O)N2CCC(N3CCCC(C)C3)CC2)cc1 (stereo not shown) [Example 48, N-methyl-4-[(3-methyl-1,4′-bipiperidin-1′-yl)carbonyl]-N-(2-methylpropyl) benzamide]",199
14,"CC1CCCN(C2CCN(C(=O)c3ccc(COc4ccccc4)cc3)CC2)C1 (stereo not shown) [Example 14, [4-(Phenoxymethyl)phenyl](3-methyl-1,4′-bipiperidin-1′-yl)methanone]",115
15,"C[C@@H]1CCCN(C2CCN(C(=O)c3ccc(C(=O)NCc4cc(Cl)ccn4)cc3)CC2)C1 [Example 90, N-[(4-Chloropyridin-2-yl)methyl]-4-{[(3R)-3-methyl-1,4′-bipiperidin-1′-yl]carbonyl}benzamide]",28
